System: Human Dermal Fibroblasts from Autistic Patients
Assay: Rescue of ASD fibroblasts stressed by addition of L-buthionine-(S,R)-sulfoximine (BSO), Calcein AM viability readout
Format: cell-based
Conditions: 1 mM BSO, 48 hours, Calcein AM fluorescence, viability relative to non-BSO treated fibroblasts (100%); read-out: EC50 of protection against ASD (rescue of BSO-stressed ASD fibroblasts)
Procedure: A screen was performed to identify compounds effective for the amelioration of ASD. Test samples, and solvent controls were tested for their ability to rescue ASD fibroblasts stressed by addition of L-buthionine-(S,R)-sulfoximine (BSO).
MEM (a medium enriched in amino acids and vitamins, catalog no. Gibco 11965) and Fetal Calf Serum were obtained from Invitrogen. Basic fibroblast growth factor and epidermal growth factor were purchased from PeproTech. Penicillin-streptomycin-glutamine mix, L-buthionine (S,R)-sulfoximine, and insulin from bovine pancreas were purchased from Sigma. Calcein AM was purchased from Molecular Probes. Cell culture medium (ATP) was made by combining 75 ml Fetal Calf Serum, 100 U/ml penicillin, 100 μg/ml streptomycin, 2 mM glutamine, 10 ng/ml EGF, and 10 ng/ml bFGF; MEM EBS was added to make the volume up to 500 ml. A 10 mM BSO solution was prepared by dissolving 444 mg BSO in 200 ml of medium with subsequent filter-sterilization. […]
100 μl of PBS containing 1.2 μM Calcein AM were then added to each well. […] After that time the PBS was discarded, the plate gently tapped on a paper towel and fluorescence (excitation/emission wavelengths of 485 nm and 525 nm, respectively) was read on a Gemini fluorescence reader. […]
The viability of non-BSO treated fibroblasts was set as 100%, and the viability of the BSO- and compound-treated cells was calculated as relative to this value.

## alpha-tocotrienol
  EC50: < 50 nM
